Data as given in patent US10584122B2, “Solid forms of a compound modulating kinases” (Plexxikon Inc., priority 2015, dated 2020).
Like-named read-outs stand apart in the source and are kept apart here.

Key:
[1] = Dynamic vapor sorption/desorption (DVS); format: physicochemical; details: for Solid form after DVS, by XRPD: after sorption/desorption; for DVS weight loss upon equilibration: equilibration at 5% RH
Description: Moisture sorption/desorption data were collected on a VTI SGA-100 Vapor Sorption Analyzer under a nitrogen purge. […] Data were not corrected for the initial moisture content of the samples. Sodium chloride and polyvinypyrrolidine were used as calibration standards.

[2] = Physical stability, stress experiments (temperature/RH) with XRPD; format: physicochemical; details: for Physical stability (overall finding): at the conditions investigated, HCl salt
physchem = details: water, thermodynamic from solid
[3] = Slurry experiment, form conversion by XRPD; format: physicochemical; details: slurried in ethanol for 21 days
Protocol: Solutions were prepared by adding enough solids to a given solvent so that excess solids were present. The mixture was then agitated in a sealed vial at either ambient or a set temperature.

Structure (SMILES): Cl.FC(F)(F)c1ccc(CNc2ccc(Cc3c[nH]c4ncc(Cl)cc34)cn2)cn1 [Compound I Form C, [5-(5-chloro-1H-pyrrolo[2,3-b]pyridin-3-ylmethyl)-pyridin-2-yl]-(6-trifluoromethyl-pyridin-3-ylmethyl)-amine HCl salt]
- Solid form after DVS, by XRPD ([1]; listed as Form C, HCl salt): remained unchanged
- DVS weight gain, sorption step ([1]; from 5% to 95% RH): 0.96%
- Hygroscopicity (DVS isotherm) ([1]; listed as Form C, HCl salt): less hygroscopic than Form A
- Physical stability (overall finding) ([2]; listed as Form C): more physically stable than Form A

Structure (SMILES): CO.Cl.FC(F)(F)c1ccc(CNc2ccc(Cc3c[nH]c4ncc(Cl)cc34)cn2)cn1 [Compound I Form D, [5-(5-chloro-1H-pyrrolo[2,3-b]pyridin-3-ylmethyl)-pyridin-2-yl]-(6-trifluoromethyl-pyridin-3-ylmethyl)-amine HCl salt methanol solvate]
- DVS weight loss, desorption phase ([1]; desorption phase): 0.9%
- DVS weight loss upon equilibration [1]: approximately 5.3%
- DVS weight gain, sorption phase ([1]; sorption phase): 0.9%
- Form conversion on heating ([2]; 80° C. for 15 minutes): desolvated to Form A
- Form conversion on heating ([2]; continued exposure to 80° C. for 2 days): converted to Form C

Structure (SMILES): Cl.FC(F)(F)c1ccc(CNc2ccc(Cc3c[nH]c4ncc(Cl)cc34)cn2)cn1 [Compound I Form A, [5-(5-chloro-1H-pyrrolo[2,3-b]pyridin-3-ylmethyl)-pyridin-2-yl]-(6-trifluoromethyl-pyridin-3-ylmethyl)-amine HCl salt]
- DVS additional weight gain, sorption step ([1]; above 75% RH): 1.7%
- Solid form after DVS, by XRPD ([1]; listed as Form A, HCl salt): Form A
- DVS weight gain, sorption step ([1]; from 5% to 75% RH): 0.6%
- Hygroscopicity (DVS isotherm) ([1]; listed as Form A, HCl salt): hygroscopic
- solubility (physchem): < 2000 µg/mL
- XRPD Result (solid form after stress) ([2]; 40° C./75% RH/14 d): A + C
- XRPD Result (solid form after stress) ([2]; 80° C./7 d (<<100 mg)): converted to Form C
- XRPD Result (solid form after stress) ([2]; RT/85% RH/14 d): A + minor C
- Physical stability (overall finding) ([2]; listed as Form A): physically metastable
- Form conversion on exposure to elevated humidity ([2]; elevated humidity): partial conversion to Form C
- Form conversion on slurry [3]: complete conversion to Form C

Structure (SMILES): FC(F)(F)c1ccc(CNc2ccc(Cc3c[nH]c4ncc(Cl)cc34)cn2)cn1 [Compound II, [5-(5-chloro-1H-pyrrolo[2,3-b]pyridin-3-ylmethyl)-pyridin-2-yl]-(6-trifluoromethyl-pyridin-3-ylmethyl)-amine]
- Hygroscopicity (DVS isotherm) [1]: hygroscopic
- DVS weight loss upon equilibration [1]: 0.3-0.4%
- DVS weight gained ([1]; from 45% to 95% RH): ~21.6%

Structure (SMILES): Cl.FC(F)(F)c1ccc(CNc2ccc(Cc3c[nH]c4ncc(Cl)cc34)cn2)cn1 [Compound I Form B, [5-(5-chloro-1H-pyrrolo[2,3-b]pyridin-3-ylmethyl)-pyridin-2-yl]-(6-trifluoromethyl-pyridin-3-ylmethyl)-amine HCl salt]
- Form conversion on heating ([2]; about 150° C. for about 5 minutes): Desolvation/conversion to Form C
